Source: US5424334A, “Peptide mimetic compounds useful as platelet aggregation inhibitors” (G. D. Searle & Co., priority 1991, dated 1995)
Structures can show the parent of a compound that is named as a salt.

These molecules were tested on Dog PRP (platelet aggregation) (assay: In-vitro platelet aggregation in PRP (ADP-induced)). Details: Canis lupus familiaris, adenosine 5'diphosphate (ADP) induced, by linear regression of dose response curve.
Assay type: cell-based
Protocol: In-Vitro Platelet Aggregation in PRP
Healthy male or female dogs were fasted for 8 hours prior to drawing blood; then 30 ml whole blood was collected using a butterfly needle and 30 cc plastic syringe with 3 ml of 0.129M buffered sodium citrate (3.8%). The syringe was rotated carefully as blood was drawn to mix the citrate. Platelet-rich plasma (PRP) was prepared by centrifugation at 975× g for 3.17 minutes at room temperature, allowing the centrifuge to coast to a stop without braking. The PRP was removed from the blood with a plastic pipette and placed in a plastic capped, 50 ml Corning conical sterile centrifuge tube which was held at room temperature. Platelet poor plasma (PPP) was prepared by centrifuging the remaining blood at 2000× g for 15 minutes at room temperature allowing the centrifuge to coast to a stop without braking. The PRP was adjusted with PPP to a count of 2-3×10^8 platelets per ml. 400 μl of the PRP preparation and 50 μl of the compound to be tested or saline were preincubated for 1 minute at 37° C. in a BioData aggregometer (BioData, Horsham, Pa.). 50 μl of adenosine 5'diphosphate (ADP) (50 μm final concentration) was added to the cuvettes and the aggregation was monitored for 1 minute. All compounds are tested in duplicate. Results are calculated as follows:
Percent of control=[(maximal OD minus initial OD of compound) divided by (maximal OD minus initial OD of control saline)]×100. The % inhibition=100-(percent of control).
In Table A, two readings given in a single box indicate that two trials, rather than a single trial, were run for that particular compound in that particular assay.

**Q.** Which IC50 does the source give for Cc1ccc(S(=O)(=O)N[C@H](CC(=O)O)C(=O)NCCCCc2ccc(C(=N)N)cc2)cc1 [Compound 53010, 4-[[4-[4-(aminoiminomethyl)phenyl]butyl]amino]-4-oxo-3R-[[(4-methylphenyl)sulfonyl]amino]butanoic acid] here?
**A.** 6 µM

**Q.** For CCOC(=O)CC[C@@H](NC(=O)OCc1ccccc1)C(=O)NCCCCc1ccc(C(=N)N)cc1 [Compound 53033, ethyl 5-[[4-[4-(aminoiminomethyl)phenyl]butyl]amino]-5-oxo-4R-[[(phenylmethoxy)carbonyl]amino]pentanoate, monohydrochloride], which IC50 is on record?
**A.** 7 µM

**Q.** Which IC50 does the source give for N=C(N)c1ccc(CCCCNC(=O)[C@@H](CC(=O)O)NC(=O)OCc2ccccc2)cc1 [Compound 52513, 4-[[4-[4-(aminoiminomethyl)phenyl]butyl]amino]-4-oxo-3(R)-[[(Phenylmethoxy)carbonyl]amino]butanoic acid] here?
**A.** 3 µM

**Q.** How did the IC50 turn out when N=C(N)c1ccc(C#CCCCNC(=O)[C@@H](CCC(=O)O)NC(=O)OCc2ccccc2)cc1 [Compound 53314, 5-[[5-[4-(aminoiminomethyl)phenyl]-4-pentynyl]amino]-5-oxo-4R-[[(phenylmethoxy)carbonyl]amino]pentanoic acid] was run?
**A.** 2 µM

**Q.** With N=C(N)c1ccc(CCCCNC(=O)[C@@H](CC(=O)O)NC(=O)CCc2ccccc2)cc1 [Compound 53143, 4-[[4-[4-(aminoiminomethyl)phenyl]butyl]amino]-4-oxo-3R-[(1-oxo-3-phenylpropyl)amino]butanoic acid] as the molecule, how does the IC50 read?
**A.** 4.1 µM

**Q.** CS(=O)(=O)N[C@H](CCC(=O)O)C(=O)NCCCCc1ccc(C(=N)N)cc1 [Compound 53065, 5-[[4-[4-(aminoiminomethyl)phenyl]butyl]amino]-5-oxo-4(R)-methylsulfonylaminopentanoic acid] was tested. Which IC50 did it give?
**A.** 3.5 µM

**Q.** N=C(N)c1ccc(CCCCNC(=O)[C@H](CCC(=O)O)NC(=O)OCc2ccccc2)cc1 [Compound 52828, 5-[[4-[4-(aminoiminomethyl)phenyl]butyl]amino]-5-oxo-4(S)-[[(phenylmethoxy)carbonyl]amino]pentanoic acid] was tested. Which IC50 did it give?
**A.** 4.2 µM

**Q.** How did the IC50 turn out when N=C(N)c1ccc(CCCCNC(=O)[C@H](CCC(=O)O)NC(=O)CCc2ccccc2)cc1 [Compound 53112, 5-[[4-[4-(aminoiminomethyl)phenyl]butyl]amino]-5-oxo-4S-[1-oxo-3-phenylpropylamino]pentanoic acid] was run?
**A.** 1.9 µM

**Q.** Which IC50 does the source give for N=C(N)c1ccc(CCCCNC(=O)[C@@H](CCC(=O)O)NC(=O)OCc2ccccc2)cc1 [Compound 52809, 5-[[4-[4-(aminoiminomethyl)phenyl]butyl]amino]-5-oxo-4(R)-[[(phenylmethoxy)carbonyl]amino]pentanoic acid] here?
**A.** 1.8 µM
